Measurements as given in ChEMBL document CHEMBL1681651, “A broad spectrum anticancer nucleoside with selective toxicity against human colon cells in vitro” (2011).

Experiments:
Format in all cases: functional
A498 [1] = experiment: Growth inhibition of human A498 cells assessed as cell growth at 1 mM after 48 hrs by SRB assay; settings: A498, 48 h, read-out: Activity
HCT-116 [2] = experiment: Growth inhibition of human HCT116 cells assessed as cell growth at 1 mM after 48 hrs by SRB assay; settings: HCT-116, 48 h, read-out: Activity
NCI-H522 [3] = experiment: Growth inhibition of human NCI-H522 cells assessed as cell growth at 1 uM after 48 hrs by SRB assay; settings: NCI-H522, 48 h, read-out: Activity
CAKI-1 = experiment: Growth inhibition of human Caki1 cells assessed as cell growth at 100 uM after 48 hrs by SRB assay; settings: CAKI-1, 48 h, read-out: Activity
ACHN = experiment: Growth inhibition of human ACHN cells after 48 hrs by […] growth inhibition assay
RXF 393 [4] = experiment: Growth inhibition of human RXF393 cells assessed as cell growth at 0.1 uM after 48 hrs by SRB assay; settings: RXF 393, 48 h, read-out: Activity
SF-295 [5] = experiment: Growth inhibition of human SF295 cells assessed as cell growth at 1 mM after 48 hrs by SRB assay; settings: SF-295, 48 h, read-out: Activity
TK-10 = experiment: Growth inhibition of human TK10 cells after 48 hrs by […] growth inhibition assay; settings: TK-10, 48 h
NCI-H226 [6] = experiment: Growth inhibition of human NCI-H226 cells assessed as cell growth at 100 uM after 48 hrs by SRB assay; settings: NCI-H226, 48 h, read-out: Activity
NCI-H322M [7] = experiment: Growth inhibition of human NCI-H322M cells after 48 hrs by […] growth inhibition assay
MDA-MB-435 = experiment: Growth inhibition of human MDA-MB-435 cells after 48 hrs by SRB assay; settings: MDA-MB-435, 48 h
[8] = Growth inhibition of human […] cells after 48 hrs by […] growth inhibition assay
HCT-116 [9] = experiment: Growth inhibition of human HCT116 cells assessed as cell growth at 1 uM after 48 hrs by SRB assay; settings: HCT-116, 48 h, read-out: Activity
SF-268 = experiment: Growth inhibition of human SF268 cells assessed as cell growth at 100 uM after 48 hrs by SRB assay; settings: SF-268, 48 h, read-out: Activity
UACC-62 = experiment: Growth inhibition of human UACC62 cells assessed as cell growth at 1 mM after 48 hrs by SRB assay; settings: UACC-62, 48 h, read-out: Activity
CCRF-CEM = experiment: Growth inhibition of human CCRF-CEM cells assessed as cell growth at 10 uM after 48 hrs by SRB assay; settings: read-out: Activity
HOP-92 [10] = experiment: Growth inhibition of human HOP92 cells assessed as cell growth at 1 mM after 48 hrs by SRB assay; settings: HOP-92, 48 h, read-out: Activity
NCI-H226 [11] = experiment: Growth inhibition of human NCI-H226 cells assessed as cell growth at 10 uM after 48 hrs by SRB assay; settings: NCI-H226, 48 h, read-out: Activity
NCI-H322M [12] = experiment: Growth inhibition of human NCI-H322M cells assessed as cell growth at 1 mM after 48 hrs by SRB assay; settings: read-out: Activity
IGROV-1 = experiment: Growth inhibition of human IGROV1 cells assessed as cell growth at 1 uM after 48 hrs by SRB assay; settings: IGROV-1, 48 h, read-out: Activity
M14 = experiment: Growth inhibition of human M14 cells assessed as cell growth at 1 mM after 48 hrs by SRB assay; settings: M14, 48 h, read-out: Activity
SK-MEL-5 = experiment: Growth inhibition of human SK-MEL-5 cells assessed as cell growth at 1 uM after 48 hrs by SRB assay; settings: SK-MEL-5, 48 h, read-out: Activity
NCI-H522 [13] = experiment: Growth inhibition of human NCI-H522 cells assessed as cell growth at 1 mM after 48 hrs by SRB assay; settings: NCI-H522, 48 h, read-out: Activity
EKVX = experiment: Growth inhibition of human EKVX cells assessed as cell growth at 100 uM after 48 hrs by SRB assay; settings: read-out: Activity
Malme-3M = experiment: Growth inhibition of human MALME-3M cells assessed as cell growth at 1 mM after 48 hrs by SRB assay; settings: read-out: Activity
HCT-116 [14] = experiment: Growth inhibition of human HCT116 cells assessed as cell growth at 0.1 uM after 48 hrs by SRB assay; settings: HCT-116, 48 h, read-out: Activity
SK-MEL-2 = experiment: Growth inhibition of human SK-MEL-2 cells after 48 hrs by […] growth inhibition assay; settings: SK-MEL-2, 48 h
HOP-92 [15] = experiment: Growth inhibition of human HOP92 cells assessed as cell growth at 10 uM after 48 hrs by SRB assay; settings: HOP-92, 48 h, read-out: Activity
SF-295 [16] = experiment: Growth inhibition of human SF295 cells assessed as cell growth at 1 uM after 48 hrs by SRB assay; settings: SF-295, 48 h, read-out: Activity
RXF 393 [17] = experiment: Growth inhibition of human RXF393 cells assessed as cell growth at 1 mM after 48 hrs by SRB assay; settings: RXF 393, 48 h, read-out: Activity
MCF7 = experiment: Growth inhibition of human MCF7 cells assessed as cell growth at 10 uM after 48 hrs by SRB assay; settings: MCF7, 48 h, read-out: Activity
DU-145 = experiment: Growth inhibition of human DU145 cells assessed as cell growth at 1 uM after 48 hrs by SRB assay; settings: DU-145, 48 h, read-out: Activity
A498 [18] = experiment: Growth inhibition of human A498 cells assessed as cell growth at 100 uM after 48 hrs by SRB assay; settings: A498, 48 h, read-out: Activity
[19] = Growth inhibition of human Hs 578T cells assessed as cell growth at 10 uM after 48 hrs by SRB assay; settings: read-out: Activity
MOLT-4 = experiment: Growth inhibition of human MOLT4 cells assessed as cell growth at 10 uM after 48 hrs by SRB assay; settings: MOLT-4, 48 h, read-out: Activity
[20] = read-out: LC50 (the source's name)
[21] = read-out: pLC50 (the source's name) (converted)

SMILES: CNC(=O)NC[C@H]1O[C@@H](n2cnc3c(NC(=O)Nc4ccccc4)ncnc32)[C@H](O[Si](C)(C)C(C)(C)C)[C@@H]1O[Si](C)(C)C(C)(C)C
- growth at 1000 µM (A498 [1]): -76%
- growth at 1000 µM (HCT-116 [2]): -100%
- growth at 1 µM (NCI-H522 [3]): 90%
- growth at 100 µM (CAKI-1): -11%
- GI50 (ACHN; read-out: GI50): 3.83 µM
- CC50 (ACHN; [20]): > 100 µM
- TGI (ACHN; read-out: TGI): > 100 µM
- GI50 (ACHN; read-out: pGI50 (converted)): 3.8 µM
- CC50 (ACHN; [21]): > 100 µM
- TGI (ACHN; read-out: pTGI): > 100 µM
- growth at 0.1 µM (RXF 393 [4]): 98%
- growth at 1000 µM (SF-295 [5]): -7%
- GI50 (TK-10; read-out: GI50): 4.29 µM
- CC50 (TK-10; [20]): > 100 µM
- TGI (TK-10; read-out: TGI): 72.6 µM
- GI50 (TK-10; read-out: pGI50 (converted)): 4.27 µM
- CC50 (TK-10; [21]): > 100 µM
- TGI (TK-10; read-out: pTGI (converted)): 72.4 µM
- growth at 100 µM (NCI-H226 [6]): -7%
- GI50 (NCI-H322M [7]; read-out: GI50): 6.86 µM
- CC50 (NCI-H322M [7]; [20]): > 100 µM
- TGI (NCI-H322M [7]; read-out: TGI): > 100 µM
- GI50 (NCI-H322M [7]; read-out: pGI50 (converted)): 6.92 µM
- CC50 (NCI-H322M [7]; [21]): > 100 µM
- TGI (NCI-H322M [7]; read-out: pTGI): > 100 µM
- GI50 (MDA-MB-435; read-out: GI50): 3.41 µM
- LC50 (MDA-MB-435; read-out: LC50): > 100 µM
- TGI (MDA-MB-435; read-out: TGI): 29.1 µM
- GI50 (MDA-MB-435; read-out: pGI50 (converted)): 3.39 µM
- LC50 (MDA-MB-435; read-out: pLC50 (converted)): > 100 µM
- TGI (MDA-MB-435; read-out: pTGI (converted)): 28.8 µM
- GI50 ([8]; read-out: GI50): 3.27 µM
- CC50 [8, 20]: > 100 µM
- TGI ([8]; read-out: TGI): > 100 µM
- GI50 ([8]; read-out: pGI50 (converted)): 3.31 µM
- CC50 [8, 21]: > 100 µM
- TGI ([8]; read-out: pTGI (converted)): > 100 µM
- growth at 1 µM (HCT-116 [9]): 105%
- growth at 100 µM (SF-268): 8%
- growth at 1000 µM (UACC-62): -39%
- growth at 10 µM (CCRF-CEM): 101%
- growth at 1000 µM (HOP-92 [10]): -50%
- growth at 10 µM (NCI-H226 [11]): 105%
- growth at 1000 µM (NCI-H322M [12]): 21%
- growth at 1 µM (IGROV-1): 99%
- growth at 1000 µM (M14): -52%
- growth at 1 µM (SK-MEL-5): 98%
- growth at 1000 µM (NCI-H522 [13]): -49%
- growth at 100 µM (EKVX): 9%
- growth at 1000 µM (Malme-3M): -48%
- growth at 0.1 µM (HCT-116 [14]): 107%
- GI50 (SK-MEL-2; read-out: GI50): 2.45 µM
- CC50 (SK-MEL-2; [20]): > 100 µM
- TGI (SK-MEL-2; read-out: TGI): 55.4 µM
- GI50 (SK-MEL-2; read-out: pGI50 (converted)): 2.45 µM
- CC50 (SK-MEL-2; [21]): 28.2 µM
- TGI (SK-MEL-2; read-out: pTGI (converted)): 5.5 µM
- growth at 10 µM (HOP-92 [15]): 69%
- growth at 1 µM (SF-295 [16]): 107%
- growth at 1000 µM (RXF 393 [17]): -77%
- growth at 10 µM (MCF7): 83%
- growth at 1 µM (DU-145): 107%
- growth at 100 µM (A498 [18]): -39%

SMILES: CNC(=O)OC[C@H]1O[C@@H](n2cnc3c(NC(=O)Nc4ccccc4)ncnc32)[C@H](O[Si](C)(C)C(C)(C)C)[C@@H]1O[Si](C)(C)C(C)(C)C
- growth at 10 µM [19]: 97.6%
- growth at 10 µM (NCI-H226 [11]): 93.2%
- growth at 10 µM (HOP-92 [15]): 54.7%
- growth at 10 µM (MOLT-4): 75.3%
- growth at 10 µM (MCF7): 87.8%
